Entries after “also recorded” stand apart in the source; their conditions may differ.
How the values were obtained:
[1] = test system: primary rat immature cortical neurons; test: Neurotoxin-induced loss of viability of primary immature cortical neurons (LDH leakage); assay type: cell-based; conditions: 24 h
Description: (§1) Referring to FIG. 1, primary rat immature cortical neurons (A-C) or HT4 (D) were either treated or not with α-tocotrienol (as indicated) for 5 min and challenged with either glutamate (10 mM; A); L-homocysteic acid (1 mM; B); or buthionine sulfoximine (0.15 mM; BSO) for 24 h. […] Cells were counted at 12, 24 and 36 h after glutamate challenge.
(§2) First, we tested for the involvement of 12-LOX in the execution of glutamate-induced death in our model. We started by using the 12-LOX specific inhibitor baicalein or BL15. Referring to FIG. 3, HT4 neurons (A) were either treated or not with a-tocotrienol (250 nM) or […] (2.5 μM, 12-lipoxygenase inhibitor) for 5 min and then challenged with glutamate (10 mM). Cell viability was determined using propidium iodide (PI) exclusion flow cytometry assay. PI−=live; PI+=dead. Rat primary immature cortical neurons (B-D) were either treated or not with α-tocotrienol (100 nM) or BL15 (2.5 μM) for 5 min and challenged either with glutamate (10 mM; B); L-homocysteic acid (1 mM; C) or buthionine sulfoximine (0.15 mM; BSO; D) for 24 h. Arachidonic acid, 50 μM for 24h. BL15, Baicalein 5,6,7-trihydroxy-flavone.
(§3) Cell culture. Mouse hippocampal HT4 cells, were grown in Dulbecco's Modified Eagle Medium supplemented with 10% fetal calf serum, penicillin (100 U/ml) and streptomycin (100 μg/ml) at 37° C. in a humidified atmosphere containing 95% air and 5% CO2. HT4 cells were provided by Dr. D. E. Koshland Jr. (University of California at Berkeley) (Sen et al., 2000). Primary cortical neurons. Cells were isolated from the cerebral cortex of rat feti (Sprague Dawley; day 17 of gestation) or mouse feti (C57BL/6 mice, day 14 of gestation) as described (Murphy et al., 1990). For 12-LOX knockout studies, neurons were isolated from the feti of B6.129S2-Alox15^tm1Fun (Jackson Laboratory, […].). After isolation from the brain, cells were counted and seeded in culture plates at a density of 2-3×10^6 cells per 35 mm plate (Murphy et al., 1990). Cells were grown in Minimal Essential Medium (MEM) supplemented with 10% heat-inactivated fetal bovine serum, 40 μM cystine and antibiotics (100 μg/ml streptomycin, 100 units/ml penicillin, 0.25 μg/ml amphotericin). Cultures were maintained at 37° C. in 5% CO2 and 95% air in a humidified incubator. All experiments were carried out 24 h after plating.
(§4) Treatment with neurotoxic agents. Immediately before experiments, culture media was replaced with fresh medium supplemented with serum and antibiotics. Glutamate (10 mM) was added to the media as aqueous solution (Han et al., 1997a; Sen et al., 2000; Tirosh et al., 2000). […] Other agents used to induce death in neuronal cells have been described in the pertinent figure legends.
(§5) Vitamin E treatment. Stock solutions (10^3X of working concentration) of α-tocotrienol was prepared in ethanol. […]
(§6) Determination of cell viability. Viability of HT4 cells was determined using propidium iodide exclusion assay using the flow cytometer as described by us previously (Sen et al., 2000; Tirosh et al., 2000). Because primary neuronal cultures tend to aggregate during flow cytometry, the viability of these cells was assessed by measuring lactate dehydrogenase (LDH) leakage (Han et al., 1997a) from cells to media 24 h following glutamate treatment using in vitro toxicology assay kit from Sigma Chemical Co. (St. Louis, Mo., USA). […]

HT4 neurons = test: Glutamate-induced death of HT4 neurons (propidium iodide exclusion flow cytometry, cell counts); assay type: cell-based, mouse
Description: as §1, §2, §3, §4, §5, §6

[2] = test system: rat primary cortical neurons; test: Imaging of glutamate-induced degeneration of rat primary cortical neurons (immunofluorescence, live cell imaging); assay type: cell-based; conditions: glutamate 10 mM; α-tocotrienol 250 nM or BL15 2.5 μM 5 min before
Description: Phase contrast images were collected once every 15 mins for 18 h from 8 h after glutamate treatment.
For immunofluorescence microscopy, primary cultures of rat cortical neurons were plated on 35 mm plates pre-coated with poly-L-lysine. After 24 h, cell were treated with α-tocotrienol or BL15 for 5 minutes and then challenged with glutamate or exposed to glutamate. After 24 h of glutamate exposure, cells were washed thrice in PBS, fixed for 10 minutes at room temperature in 4% paraformaldehyde, and permeabilized with PBS-T (PBS containing 0.2% Triton X-100) for 20 minutes at room temperature. Samples were then rinsed 3× with PBS-T and blocking (2% BSA in PBS-T) was done for 1 h at room temperature. After blocking, samples were incubated overnight at 4° C. with the primary antibody (anti-neurofilament 200 (1:100, Sigma St. Louis, Mo.) or neuronal class III α-tubulin (1:500, Covance Berkeley, Calif.)}. After washing with PBS (3×, 5 min each), the samples were incubated with Alexa Fluor 488 conjugated goat anti-mouse or anti-rabbit (Molecular Probes Eugene, Oreg.) secondary antibody for 45 minutes at room temperature. This was followed by three PBS washes, and mounting in aqueous medium. Fluorescent images were collected using a Zeiss Axiovert 200M microscope. Images were acquired using Axiovision 3.1.
For live cell imaging, primary cultures of rat cortical neurons were plated on 35 mm plates pre-coated with poly-L-lysine. […] Images were collected once every 15 minutes using a specialized phase contrast Zeiss optics suited for imaging cells growing in routine culture plates.

primary neurons = test: Cellular glutathione (GSH) in glutamate-treated primary neurons (HPLC-coulometric); assay type: cell-based, rat; conditions: glutamate 10 mM; α-tocotrienol 100 nM or BL15 2.5 μM
Description: as §2, with “5,6,7-trihydroxy-flavone. […] B-E: †, lower compared to the corresponding control non-treated group; *, higher compared to the corresponding toxin-treated group. P<0.05.” for “5,6,7-trihydroxy-flavone.”
Glutathione assay. Glutathione (GSH) was detected using a HPLC-coulometric electrode array detector (Coularray Detector—model 5600 with 12 channels; ESA Inc., Chelmsford, Mass.). […] Glutathione was detected at channels set at following potentials: I) 600 mV, II) 700 mV; and II) 800 mV. Signals from channel set at 800 mV were used for quantification (Sen et al., 2002).

[3] = test system: primary cardiac fibroblatsts (CF) isolated from adult mouse ventricle; test: Cardiac fibroblast death induced by arachidonic acid + buthionine sulfoximine (phase contrast imaging); assay type: cell-based; conditions: arachidonic acid 50 microM + BSO, 250 nM tocotrienol, 24 h, 5% O2
Description: Assays were performed using primary cardiac fibroblatsts (CF) isolated from adult (5-6 week old) mouse ventricle. Cells were cultured under 5% O2 conditions. Five days after isolation cells were treated with arachidonic acid (50 microM)+buthionine sulfoximine in the presence or absence of 250 nM tocotrienol for 24h. Phase contrast imaging was performed using a Zeiss live cell imaging microscope.
Referring to FIG. 8, isolated cardiac fibroblasts cells were treated five days after isolation with arachidonic acid (AA)(50 microM)±buthionine sulfoximine (BS)) in the presence or absence of 250 nM tocotrienol (T3) for 24 hours. Phase contrast imaging was performed using a Zeiss live cell imaging microscope.

TTP knock-out mice = test: Fertility of tocopherol transport protein (TTP) knock-out mice; conditions: mouse, in vivo
Description: The uptake and transport of dietary or pharmaceutically supplemented tocopherol from the gut to various parts of the body is directed by TTP. In order to understand and distinguish the important roles of tocopherols and tocotrienols in mammals, knock out mice have been produced in which expression of TTP has been ablated. Interruption of TTP results in loss of fertility in these mice which make it impossible to breed and thus maintain the line for further study.

[4] = target: T1, hydroxy-3 methylglutaryl coenzyme A reductase (Homo sapiens, UniProt P04035); conditions: micromolar amounts; Pearce et al.; cited from earlier work
T1 sequence (P04035 1-888): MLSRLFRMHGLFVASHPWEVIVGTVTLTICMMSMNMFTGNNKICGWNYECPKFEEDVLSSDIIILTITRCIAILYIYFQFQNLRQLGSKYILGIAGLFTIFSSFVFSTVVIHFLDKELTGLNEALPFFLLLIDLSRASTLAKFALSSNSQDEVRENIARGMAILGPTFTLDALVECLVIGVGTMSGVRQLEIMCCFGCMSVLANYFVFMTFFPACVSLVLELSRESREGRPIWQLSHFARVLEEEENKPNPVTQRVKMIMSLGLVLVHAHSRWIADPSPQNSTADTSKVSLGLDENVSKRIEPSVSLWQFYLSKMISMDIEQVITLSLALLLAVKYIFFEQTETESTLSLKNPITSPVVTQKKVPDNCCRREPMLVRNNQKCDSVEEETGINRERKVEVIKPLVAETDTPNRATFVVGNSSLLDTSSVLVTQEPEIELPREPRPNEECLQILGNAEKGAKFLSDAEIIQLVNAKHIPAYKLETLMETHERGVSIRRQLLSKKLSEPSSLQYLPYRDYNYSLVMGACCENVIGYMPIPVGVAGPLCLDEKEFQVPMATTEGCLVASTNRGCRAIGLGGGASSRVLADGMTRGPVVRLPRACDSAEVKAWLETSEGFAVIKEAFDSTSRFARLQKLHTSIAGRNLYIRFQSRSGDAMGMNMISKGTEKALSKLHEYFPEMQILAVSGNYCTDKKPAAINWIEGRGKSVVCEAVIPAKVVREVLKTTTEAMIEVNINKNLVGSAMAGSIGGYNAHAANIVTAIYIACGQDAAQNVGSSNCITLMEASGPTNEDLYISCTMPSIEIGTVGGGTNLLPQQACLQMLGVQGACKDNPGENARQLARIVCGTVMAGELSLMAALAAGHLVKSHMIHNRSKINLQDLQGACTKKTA

alphaTTP = target: T2, alphaTTP (Rattus norvegicus, UniProt P41034); conditions: competition with alpha-[3H]tocopherol; FEBS Lett 1997; cited from earlier work
T2 sequence (P41034 1-278): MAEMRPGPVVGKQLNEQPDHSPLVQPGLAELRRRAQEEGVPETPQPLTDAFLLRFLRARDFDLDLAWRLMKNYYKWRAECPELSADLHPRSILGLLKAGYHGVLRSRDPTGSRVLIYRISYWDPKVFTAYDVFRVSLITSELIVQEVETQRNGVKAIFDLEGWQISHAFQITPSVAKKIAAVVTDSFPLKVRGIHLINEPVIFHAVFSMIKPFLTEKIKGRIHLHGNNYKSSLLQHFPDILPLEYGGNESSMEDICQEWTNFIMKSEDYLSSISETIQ

Row | Molecule | protection of primary neurons against toxicity triggered by L-homocysteic acid or BSO ([1]; L-homocysteic acid 1 mM or BSO 0.15 mM, BL15 2.5 μM 5 min before) | protection against glutamate-induced death of primary neurons ([1]; glutamate 10 mM, α-tocotrienol 100 nM or BL15 2.5 μM 5 min before) | protection against glutamate induced death of HT4 cells (HT4 neurons; glutamate 10 mM, BL15 2.5 μM 5 min before) | glutamate-induced degeneration of the neural network and neuronal growth [2] | cellular glutathione (GSH) in protected glutamate-treated primary neurons (primary neurons) | protection against glutamate-induced toxicity / loss of cell viability of HT4 (HT4 neurons; glutamate 10 mM, tocotrienol 100 nM (nM levels) 5 min before) | proliferation / growth rate of glutamate-treated HT4 cells (HT4 neurons; tocotrienol 100 nM (nM levels), cells counted 12, 24 and 36 h after glutamate) | cell death induced by AA+BSO [3] | fertility of TTP knock-out mice (TTP knock-out mice) | activity of hydroxy-3 methylglutaryl coenzyme A reductase [4] | relative affinity of alpha TTP (alphaTTP)
1 | O=c1cc(-c2ccccc2)oc2cc(O)c(O)c(O)c12 [BL15, 5,6,7-trihydroxy-flavone, reference compound] | protected | protected neurons against glutamate challenge; also recorded: clearly protected | clearly protected | protection | loss of cellular glutathione; also recorded: lowered GSH levels | – | – | – | – | – | –
2 | tocotrienol | – | – | – | – | – | prevented glutamate-induced toxicity | proliferate at a rate comparable to cells not treated with glutamate | completely blocked cell death | reversal of TTP-dependent infertility | suppress the activity | relatively low affinity
